What all share (assay type): cell-based, human
The subject of experiment [1] is BT-549 Gal-3 H^64 cells. The experiment in a line: Western blot analysis of PARP cleavage after cisplatin treatment. The settings on record: galectin-3 H^64 cells, 50 μM cisplatin, 24, 48, 72 hours. The protocol: (§1) FIGS. 4I and 4II show cisplatin induced apoptosis of BT-549 cells and cloned variants, FIG. 4I: % apoptosis in cells treated with 25 uM cisplatin for 72 hr at 37° C. and analyzed following MTT assay (ODs in the untreated control cells were calculated as 100%, and the values are the average of triplicate experiments, bars represent ±SD, *P>0.001), FIG. 4II: Western blot analysis of the expression of PARP in cells treated with 50 μM cisplatin after 24, 48, and 72 hours, IIA: BT-549; IIB: BT-549 Gal-3 H^64; IIC: BT-549 Gal-3 P^64 (β-Actin was used as loading control. 1—untreated; 2—24 hours; 3—48 hours; 4—72 hours), FIGS. 4IIIA-B and 4IIIA′-C′: Immunohistochemical analysis of intact and cleaved galectin-3 in breast cancer progression. To investigate the possible functional significance of this allelic variation, BT-549 stable cell clones over-expressing either Galectin-3 P^64 or H^64 variant after transfection, selection, and cloning of BT-549 galectin-3 null cells were generated. […] In parental and P64 clone, the apoptotic cells were 76.5±1.34% and 71.5±3.02% respectively (FIG. 4I). That the cells' death was due to apoptosis was confirmed by the cleavage of PARP. […] A-A′: normal breast tissue, B-B′: ductal hyperplasia, C-C′: infiltrating lobular carcinoma. Arrows in B′ and C′ indicate the cleaved protein, representative pictures are presented from a study of 5 normal breast tissues, 10 lobular hyperplasia, and 8 infiltrating lobular carcinoma cases. To determine if cell death is due to apoptosis, 1×10^6 cells were seeded in 100 mm Petri dishes. After 24 hours of serum starvation, the cells were incubated with […]. After 24, 48, 72 hours, the cells were trypsinized, lysed and equivalent number of cells (1×10^5) were subjected to SDS-PAGE and Western blot analysis with a 1:200 dilution of anti-poly (ADP-ribose) polymerase (PARP), mouse monoclonal antibody (BioMol, Plymouth Meeting, Pa.). Blots were also immuno-reacted with a 1:5000 dilution of anti-b-actin mouse monoclonal antibody to normalize for variation in protein loading. […]

Experiment [2] deals with BT-549 Gal-3 P^64 cells. The experiment is described as above. The settings on record: galectin-3 P^64 expressing cells, 50 μM cisplatin, 24, 48, 72 hours. How it is done:
as §1

For experiment [3], the system named is BT-549 cells. The experiment is described as above. Conditions: parental BT-549 cells, 50 μM cisplatin, 24, 48, 72 hours. The protocol:
as §1

Experiment [4] deals with BT-549 Gal-3 H^64 cells. The experiment in a line: Cisplatin induced apoptosis, MTT assay. The settings on record: BT-549 cells expressing galectin-3 H^64 variant, 25 uM cisplatin, 72 hr, 37° C. How it is done:
(§2) FIGS. 4I and 4II show cisplatin induced apoptosis of BT-549 cells and cloned variants, FIG. 4I: % apoptosis in cells treated with 25 uM cisplatin for 72 hr at 37° C. and analyzed following MTT assay (ODs in the untreated control cells were calculated as 100%, and the values are the average of triplicate experiments, bars represent ±SD, *P>0.001), FIG. 4II: Western blot analysis of the expression of PARP in cells treated with 50 μM cisplatin after 24, 48, and 72 hours, IIA: BT-549; IIB: BT-549 Gal-3 H^64; IIC: BT-549 Gal-3 P^64 (β-Actin was used as loading control. 1—untreated; 2—24 hours; 3—48 hours; 4—72 hours), FIGS. 4IIIA-B and 4IIIA′-C′: Immunohistochemical analysis of intact and cleaved galectin-3 in breast cancer progression. To investigate the possible functional significance of this allelic variation, BT-549 stable cell clones over-expressing either Galectin-3 P^64 or H^64 variant after transfection, selection, and cloning of BT-549 galectin-3 null cells were generated. […] In parental and P64 clone, the apoptotic cells were 76.5±1.34% and 71.5±3.02% respectively (FIG. 4I). That the cells' death was due to apoptosis was confirmed by the cleavage of PARP. […] A-A′: normal breast tissue, B-B′: ductal hyperplasia, C-C′: infiltrating lobular carcinoma. Arrows in B′ and C′ indicate the cleaved protein, representative pictures are presented from a study of 5 normal breast tissues, 10 lobular hyperplasia, and 8 infiltrating lobular carcinoma cases. 2500 BT-549, BT-549 Gal-3 H^64 and BT-549 Gal-3 P^64 cells were seeded per well in triplicates onto 24 well culture dishes. In one set of wells, 25 μM cisplatin (Sigma-Aldrich Inc., St. Louis, Mo.) was added after 24 hr of seeding, the other non-treated set served as a control. Cell viability/apoptosis was determined after 72 hours by the mitochondrial-dependent reduction of 3-(4,5-dimethylthiazol-2-yl)-2,5-diphenyltetrazolium bromide (MTT) (Sigma-Aldrich Inc., St. Louis, Mo.) to formazan.
For orientation: Tetrazolium assays rely on reduction of a dye to a coloured formazan, in cell work by metabolically active cells.

Experiment [5] deals with BT-549 Gal-3 P^64 cells. The experiment in a line: Cisplatin induced apoptosis, MTT assay. The settings on record: BT-549 galectin-3 P64 clone, 25 uM cisplatin, 72 hr, 37° C. The protocol:
as §2

Experiment [6] concerns BT-549 cells. As to the kind of experiment: Cisplatin induced apoptosis, MTT assay. The settings on record: parental BT-549 cells, 25 uM cisplatin, 72 hr, 37° C. How it is done: as §2

This note sets out measurements from patent publication US20100196882A1, “GALECTIN-3 nsSNP MARKER FOR CANCER” (priority 2009, published 2010).

With `N.N.[Cl][Pt][Cl]` [cisplatin], the “PARP cleavage (85 kDa cleaved polypeptide)” value in experiment [1] was “refractive to PARP cleavage”; in experiment [2], “showed the 85 kDa cleaved polypeptide of PARP”; in experiment [3] it was “showed the 85 kDa cleaved polypeptide of PARP”. In addition, the apoptotic cells in experiment [4] was 36.2±2.2%; in experiment [5], 71.5±3.02%; in experiment [6], 76.5±1.34%.
